Measurements from patent publication US4306069A, “Encainide N-oxide” (priority 1980, dated 1981).
Converted amounts (≈) assume the structure as drawn. “Also recorded” adds a separate entry of the source. Counter-ions that a name gives are not always drawn.

Columns and labels:
Water solubility = assay type: physicochemical
dog = test: Dog I.V.: anesthetized dog, effects on blood pressure, respiration and paw temperature; assay type: in vivo; conditions: for Toxicity, Dog I.V., effect at 1 mg/kg: first dose 1 mg/kg, blood pressure, respiration, paw temperature
Procedure: ^(2) Anesthesized dog treated first with a 1 mg/kg dose and then with
a 10 mg/kg dose; effects on blood pressure, respiration, and paw
temperature are observed.

[1] = system: ouabain induced ventricular tachycardia; test: Antiarrhythmic activity, ouabain induced ventricular tachycardia in the dog; assay type: in vivo; conditions: compared with quinidine and encainide
Excerpt: The present substance is an improved antiarrhythmic agent.
^(3) Anesthetized open chest dog, ouabain induced (Byrne, J.E., et al

[2] = system: ventricular arrhythmia produced by chloroform inhalation; test: Antiarrhythmic activity, ventricular arrhythmia produced in mice by chloroform inhalation; assay type: in vivo; conditions: 10 animals per dose
Excerpt: ^(4) Ventricular arrhythmia produced in mice by chloroform inhalation
10 animals per dose (Lawson, J. W., J. Pharmacol. Exp. Therap. 160, 22

[3] = Toxicity, oral doses in mice (ALD50, ATD50); assay type: in vivo; conditions: in vivo, mouse, oral, 5 mg/kg to 2000 mg/kg, 2 mice each dose; for LD50: read-out: ALD50 (approximate lethal dose for half the animals); for TD50: read-out: ATD50 (approximate lowest dose where signs of physiologic or neurologic deficit appear)
Procedure: (§1) ^(1) Various oral doses of from 5 mg/kg to 2000 mg/kg are given to 2
(§2) mice each; ALD50 is the approximate lethal dose for half the animals
(§3) ATD50 is the approximate lowest dose where signs of physiologic or
(§4) neurologic deficit appear.

mice = test: Toxicity, oral doses in mice (ALD50, ATD50); assay type: in vivo; conditions: compared with encainide and its hydrochloride salt
Procedure: as §1, §2, §3, §4

| Compound | Water solubility, in words (Water solubility) | solubility (Water solubility; water) [mg/mL] | Toxicity, Dog I.V., effect at 1 mg/kg (dog) | Antiarrhythmic activity in ouabain induced ventricular tachycardia, in words [1] | Antiarrhythmic Activity, Mouse, I.P., activity at 31.3 mg/kg ([2]; 31.3 mg/kg) | LD50 [3] [mg/kg] | TD50 [3] [mg/kg] | Toxicity relative to encainide, in words (mice) | Water solubility (Water solubility; water) [mg/mL] | Toxicity, Dog I.V., effect at 10 mg/kg (dog; 10 mg/kg after 1 mg/kg) | ED50 ([2]; ip, mouse, I.P.) [mg/kg] |
| --- | --- | --- | --- | --- | --- | --- | --- | --- | --- | --- | --- |
| COc1ccc(C(=O)Nc2ccccc2CCC2CCCC[N+]2(C)[O-])cc1 (racemic) [Encainide N-Oxide, 4-Methoxy-N-[2-[2-(1-methyl-2-piperidyl)ethyl]phenyl]-benzamide N-oxide] | increased water solubility; also recorded: highly water soluble | 833 (≈ 2260 mM) | no effect | comparable to quinidine in activity, but somewhat less active than encainide | inactive | 500 to 1000 | 62.5 to 125 | substantially reduced toxicity |  |  |  |
| COc1ccc(C(=O)Nc2ccccc2CCC2CCCCN2C)cc1 (centres unmarked) [Encainide] | rather low water solubility |  | no effect |  |  | 50 to 100 | 5 to 10 |  | 46.3 | lethal | 7.1 to 15 |
| COc1ccc(C(=O)Nc2ccccc2CCC2CCCCN2C)cc1 (centres unmarked) [hydrochloride salt] | higher water solubility relative to the base |  |  |  |  |  |  |  | 205 |  |  |
